How the values were obtained:
Type in all cases: cell-based, human
[1] = tested on: Fibronectin secretion from brain glioblastoma T98G cells; assay: Fibronectin secretion (Western blot), T98G cells; settings: Homo sapiens, T98G, 20 ug/ml
[2] = tested on: angiopoietin expression in ES2 cells; assay: Microarray gene expression, Table 12
Description: (§1) Y/D is the ratio (in folds) of gene expression in cells treated with compound Y as compared with those of the no drug control (D),
(§2) YM/D is the ratio of gene expression in cells treated with compound YM (ACH-Y, Y without sugar moiety) compared with those of the no drug control (D)
(§3) Cell culture and drug-treatment.: ES2 cells were seeded in a T-25 flask with 4.5 million cells per flask for 24 hours. Cell culture was replaced with fresh medium with xanifolia-Y (Y) or DMSO no drug control (D) for 24 hours. Cells were then harvested for RNA isolation. Three experiments were done.
(§4) RNA extraction, labeling, hybridization, and data analysis. RNA was extracted from tumor cells using the Qiagen RNeasy Kit. RNA quality and quantity was checked by the Agilent BioAnalyzer and the NanoDrop® ND-1000 spectrophotometer respectively before further manipulation. The first and second cDNA strands were synthesized from 20 ng of total RNA using the Affymetrix T7 oligo(dT) primer protocol and kit for the two-cycle amplification. To produce amplified biotin-labeled-cRNA, the cDNA was […] by in vitro transcription using the MegaScript kit from Ambion. 15.0 μg of the labeled cRNA was fragmented and re-checked for concentration using the NanoDrop® ND-1000 spectrophotometer. A hybridization cocktail containing Affymetrix spike-in controls and fragmented labeled cRNA was loaded onto the Human U133 Plus 2.0 GeneChip® oligonucleotide array. The Affymetrix array (Affymetrix, Inc. Santa Clara, Calif.) is comprised of over 1,300,000 unique oligonucleotide features that represent greater than 38,500 well-substantiated human genes. The array was hybridized for 16 hours at 45° C. with rotation at 60 rpm then washed and stained with a strepavidin, R-phycoerythrin conjugate stain on the Affymetrix Fluidicis Station 450. Signal amplification was done using biotinylated antistreptavidin. The arrays were scanned using the GeneChip® 3000 confocal laser scanner with autoloader. The images were analyzed and quality control metrics recorded using Affymetrix GCOS software version 1.4. Lastly, the expression value for each gene was calculated using dChip PM-only model based or Plier algorithm.
(§5) Pairwise comparisons were made as follows: Treated vs. Control (Y vs. D), Modified Drug vs Control (YM/ACY-H vs. D) and Treated vs. Modified Drug (Y vs. YM/ACH-Y) Cel files analyzed using the Bioconductor package of R Statistical programming. Limma analysis generated a reasonable number of changing genes between the samples.
(§6) The raw data in the .CEL files were normalized by the GCRMA method (robust multi-array analysis). It is implemented in Bioconductor (http://www.bioconductor.org/). The raw signal intensity data were normalized, background corrected and summarized based on certain statistical models, and an expression value, in log 2-scale, is obtained per chip per probe set. Then the null hypothesis was tested that there's no significant changes in gene expression between the treatment pairs. This was done by LIMMA and is also implemented in Bioconductor. It uses empirical Bayes method to estimate the variance in gene expression. One comparison was made, namely, High Grade vs. Low Grade. The raw p-values were adjusted by the Benjamnin-Hochberg method for false discovery rate (FDR) control. All data sets contained a significant number of genes with a p-value less than 0.05, which is that the probability that a gene is NOT differential expressed (false positive) is 1:20.

[3] = tested on: collagen expression in ES2 cells; assay: Microarray gene expression, Table 5
Description: as §1, §2, §3, §4, §5, §6

[4] = tested on: CD54 expression in ES2 cells; assay: Microarray gene expression, Table 11; settings: probe 202638_s_at
Description: as §1, §2, §3
RNA extraction, labeling, hybridization, and data analysis. RNA was extracted from tumor cells using the Qiagen RNeasy Kit. RNA quality and quantity was checked by the Agilent BioAnalyzer and the NanoDrop® ND-1000 spectrophotometer respectively before further manipulation. […] The images were analyzed and quality control metrics recorded using Affymetrix GCOS software version 1.4. Lastly, the expression value for each gene was calculated using dChip PM-only model based or Plier algorithm.
Pairwise comparisons were made as follows: Treated vs. Control (Y vs. D), Modified Drug vs Control (YM/ACY-H vs. D) and Treated vs. Modified Drug (Y vs. YM/ACH-Y) Cel files analyzed using the Bioconductor package of R Statistical programming. […]

How did the inhibition at 20 µg/mL [1] turn out when C/C=C(/C)C(=O)O[C@H]1[C@H](OC(=O)/C(C)=C\C)[C@@]2(CO)C(CC1(C)C)C1=CCC3[C@@]4(C)CC[C@H](O)C(C)(C)C4CC[C@@]3(C)[C@]1(C)[C@@H](O)[C@H]2O (some centres unmarked) [ACH-Y] was run?
The inhibition at 20 µg/mL was 30%.

And the “ANGPT2 angiopoietin 2, gene expression ratio to no drug control (D)” value ([2]; probe 205572_at)?
Its value is 1.4 folds.

What about the “ANGPT1 angiopoietin 1, gene expression ratio to no drug control (D)” value ([2]; probe 205609_at) of the same molecule?
Its value is −1.2 folds.

And the “ANGPT2 angiopoietin 2, gene expression ratio to no drug control (D)” value ([2]; probe 211148_s_at)?
Its value is 1.4 folds.

And the “ANGPTL4 angiopoietin-like 4, gene expression ratio to no drug control (D)” value ([2]; probe 221009_s_at)?
Its value is −1.4 folds.

What about the “ANGPTL1 Angiopoietin-like 1, gene expression ratio to no drug control (D)” value ([2]; probe 227533_at) of the same molecule?
Its value is −2.3 folds.

And the “P4HB procollagen-proline, 2-oxoglutarate 4-dioxygenase, beta polypeptide, gene expression ratio to no drug control (D)” value ([3]; probe 200654_at)?
Its value is −1.3 folds.

And the “P4HB procollagen-proline, 2-oxoglutarate 4-dioxygenase, beta polypeptide, gene expression ratio to no drug control (D)” value ([3]; probe 200656_s_at)?
Its value is −1.2 folds.

And the “PLOD1 procollagen-lysine 1,2-oxoglutarate 5-dioxygenase 1, gene expression ratio to no drug control (D)” value ([3]; probe 200827_at)?
The value was −1.2 folds.

And the “COL6A3 collagen, type VI, alpha 3, gene expression ratio to no drug control (D)” value ([3]; probe 201438_at)?
The value was −1.5 folds.

What about the “PLOD3 procollagen-lysine, 2-oxoglutarate 5-dioxygenase 3, gene expression ratio to no drug control (D)” value ([3]; probe 202185_at) of the same molecule?
The value was −1.1 folds.

What about the “COL1A1 collagen, type I, alpha 1, gene expression ratio to no drug control (D)” value ([3]; probe 202311_s_at) of the same molecule?
Its value is −3.6 folds.

What about the “PCOLCE procollagen C-endopeptidase enhancer, gene expression ratio to no drug control (D)” value ([3]; probe 202465_at) of the same molecule?
The value was −1.6 folds.

What about the “PLOD2 procollagen-lysine, 2-oxoglutarate 5-dioxygenase 2, gene expression ratio to no drug control (D)” value ([3]; probe 202619_s_at) of the same molecule?
The value was −1.2 folds.

What about the “PLOD2 procollagen-lysine, 2-oxoglutarate 5-dioxygenase 2, gene expression ratio to no drug control (D)” value ([3]; probe 202620_s_at) of the same molecule?
Its value is −1.3 folds.

What about the “P4HA2 procollagen-proline, 2-oxoglutarate 4-dioxygenase, alpha polypeptide II, gene expression ratio to no drug control (D)” value ([3]; probe 202733_at) of the same molecule?
The value was −1.9 folds.

What about the “COL5A1 collagen, type V, alpha 1, gene expression ratio to no drug control (D)” value ([3]; probe 203325_s_at) of the same molecule?
Its value is −2.8 folds.

What about the “P4HA1 procollagen-proline, 2-oxoglutarate 4-dioxygenase, alpha polypeptide I, gene expression ratio to no drug control (D)” value ([3]; probe 207543_s_at) of the same molecule?
Its value is −1.5 folds.

What about the “COL13A1 collagen, type XIII, alpha 1, gene expression ratio to no drug control (D)” value ([3]; probe 208535_x_at) of the same molecule?
Its value is −1.2 folds.

What about the “COL18A1 collagen, type XVIII, alpha 1, gene expression ratio to no drug control (D)” value ([3]; probe 209081_s_at) of the same molecule?
Its value is −1.5 folds.

What about the “COL13A1 collagen, type XIII, alpha 1, gene expression ratio to no drug control (D)” value ([3]; probe 211343_s_at) of the same molecule?
Its value is −1.7 folds.

What about the “COL13A1 collagen, type XIII, alpha 1, gene expression ratio to no drug control (D)” value ([3]; probe 211809_x_at) of the same molecule?
The value was −1.5 folds.

What about the “COL4A2 collagen, type IV, alpha 2, gene expression ratio to no drug control (D)” value ([3]; probe 211966_at) of the same molecule?
The value was −1.7 folds.

What about the “COL4A1 collagen, type IV, alpha 1, gene expression ratio to no drug control (D)” value ([3]; probe 211981_at) of the same molecule?
The value was −2.2 folds.

And the “COL6A1 collagen, type VI, alpha 1, gene expression ratio to no drug control (D)” value ([3]; probe 212091_s_at)?
The value was −1.9 folds.

And the “COL5A1 collagen, type V, alpha 1, gene expression ratio to no drug control (D)” value ([3]; probe 212489_at)?
The value was −4.1 folds.

What about the “COL4A5 collagen, type IV, alpha 5 (Alport syndrome), gene expression ratio to no drug control (D)” value ([3]; probe 213110_s_at) of the same molecule?
The value was −2.2 folds.

What about the “COL6A2 collagen, type VI, alpha 2, gene expression ratio to no drug control (D)” value ([3]; probe 213290_at) of the same molecule?
Its value is −1.5 folds.

What about the “COL4A6 collagen, type IV, alpha 6, gene expression ratio to no drug control (D)” value ([3]; probe 213992_at) of the same molecule?
The value was −1.9 folds.

And the “COL10A1 collagen, type X, alpha 1, gene expression ratio to no drug control (D)” value ([3]; probe 217428_s_at)?
The value was −1.2 folds.

What about the “COL5A2 collagen, type V, alpha 2, gene expression ratio to no drug control (D)” value ([3]; probe 221729_at) of the same molecule?
Its value is −1.8 folds.

And the “COL5A2 collagen, type V, alpha 2, gene expression ratio to no drug control (D)” value ([3]; probe 221730_at)?
Its value is −1.6 folds.

What about the “COL12A1 collagen, type XII, alpha 1, gene expression ratio to no drug control (D)” value ([3]; probe 231766_s_at) of the same molecule?
Its value is −2.4 folds.

What about the “CCBE1 collagen and calcium binding EGF domains 1, gene expression ratio to no drug control (D)” value ([3]; probe 242324_x_at) of the same molecule?
The value was −1.8 folds.

What about the “COL5A1 collagen, type V, alpha 1, gene expression ratio to no drug control (D)” value ([3]; probe 1556138_a_at) of the same molecule?
Its value is −2.8 folds.

And the “P4HA2 procollagen-proline, 2-oxoglutarate 4-dioxygenase, alpha polypeptide II, gene expression ratio to no drug control (D)” value ([3]; probe 1568611_at)?
Its value is −2.4 folds.

And the “expression ratio to the control, collagen” value ([3]; span over probes of Table 5)?
Its value is −1.1 to −3.6 folds.

What about the “ICAM1 intercellular adhesion molecule 1 (CD54), gene expression ratio to no drug control (D)” value [4] of the same molecule?
Its value is 2.3 folds.
